{"source": "ChEMBL document CHEMBL6109039", "about": "“Designed and synthesized novel tripeptides targeting diabetes and its related pathologies” (Eur J Med Chem, 2025)", "key": {"Albumin [1]": {"biological_target": "T1, Albumin (Homo sapiens, UniProt P02768)", "T1 sequence (P02768 whole entry)": "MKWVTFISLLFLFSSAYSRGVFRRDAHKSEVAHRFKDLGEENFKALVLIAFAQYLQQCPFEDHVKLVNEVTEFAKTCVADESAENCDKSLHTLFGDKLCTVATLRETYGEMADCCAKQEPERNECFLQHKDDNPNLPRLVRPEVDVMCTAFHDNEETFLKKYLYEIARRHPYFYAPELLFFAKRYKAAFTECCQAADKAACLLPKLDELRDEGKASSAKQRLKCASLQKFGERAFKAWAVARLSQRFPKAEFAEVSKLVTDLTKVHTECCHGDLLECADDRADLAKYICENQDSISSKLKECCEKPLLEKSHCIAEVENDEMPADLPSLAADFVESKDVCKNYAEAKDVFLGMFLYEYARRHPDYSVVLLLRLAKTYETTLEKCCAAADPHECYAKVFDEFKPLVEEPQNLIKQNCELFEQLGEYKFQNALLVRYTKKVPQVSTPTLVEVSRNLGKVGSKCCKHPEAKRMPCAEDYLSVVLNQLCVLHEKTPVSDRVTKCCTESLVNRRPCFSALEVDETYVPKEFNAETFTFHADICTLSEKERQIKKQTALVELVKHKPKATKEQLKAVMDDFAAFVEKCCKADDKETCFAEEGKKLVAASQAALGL", "experiment": "Inhibition of D-fructose glycation in human serum albumin model by measuring absorbance at 279 nm incubated for 30 days by UV spectroscopic analysis (reference value: 2.323)", "settings": "720 h, time 30 day"}, "Albumin [2]": {"biological_target": "T1, Albumin", "experiment": "Inhibition of D-fructose glycation in human serum albumin model incubated for 14 days by UV spectroscopic analysis relative to control", "settings": "336 h, time 14 day"}, "Albumin [3]": {"biological_target": "T1, Albumin", "experiment": "Inhibition of D-glucose glycation in human serum albumin model by measuring ketoamine moieties incubated for 14 days by Nitroblue tetrazolium (NBT) reduction assay (reference value: 28.69 nmol/mL)", "settings": "336 h, time 14 day"}, "Mus musculus [4]": {"tested_on": "Mus musculus", "experiment": "Antidiabetic activity in Nicotinamide/Streptozotocin induced male Balb/c mouse model assessed as change in body weight at 63.81 ug/kg, ip treated for 21 days (reference value: 16.62 +/- 0.83 g)", "assay_type": "functional", "settings": "dose 63.81 µg/kg, time 21 day"}, "Mus musculus [5]": {"tested_on": "Mus musculus", "experiment": "Antidiabetic activity in Nicotinamide/Streptozotocin induced male Balb/c mouse model assessed as TC/HDL-Cholesterol ratio in blood at 63.81 ug/kg, ip treated for 21 days (reference value: 4.03)", "assay_type": "functional", "settings": "dose 63.81 µg/kg, time 21 day"}, "Albumin [6]": {"biological_target": "T1, Albumin", "experiment": "Inhibition of D-fructose glycation in human serum albumin model by measuring ketoamine moieties incubated for 26 days by Nitroblue tetrazolium (NBT) reduction assay (reference value: 118.21 nmol/mL)", "settings": "624 h, time 26 day"}, "Albumin [7]": {"biological_target": "T1, Albumin", "experiment": "Inhibition of D-fructose glycation in human serum albumin model assessed as reduction in fluorescence intensity incubated for 3 days by UV spectroscopic analysis relative to control", "settings": "72 h, time 3 day"}, "Albumin [8]": {"biological_target": "T1, Albumin", "experiment": "Inhibition of D-fructose glycation in human serum albumin model by measuring absorbance at 279 nm incubated for 7 days by UV spectroscopic analysis (reference value: 1.072)", "settings": "168 h, time 7 day"}, "Albumin [9]": {"biological_target": "T1, Albumin", "experiment": "Inhibition of D-glucose glycation in human serum albumin model by measuring absorbance at 279 nm incubated for 5 days by UV spectroscopic analysis (reference value: 0.741)", "settings": "120 h, time 5 day"}, "Albumin [10]": {"biological_target": "T1, Albumin", "experiment": "Inhibition of D-glucose glycation in human serum albumin model by measuring absorbance at 279 nm incubated for 33 days by UV spectroscopic analysis (reference value: 1.997)", "settings": "792 h, time 33 day"}, "Albumin [11]": {"biological_target": "T1, Albumin", "experiment": "Inhibition of D-fructose glycation in human serum albumin model by measuring absorbance at 279 nm incubated for 33 days by UV spectroscopic analysis (Rvb =2.222)", "settings": "792 h, time 33 day"}, "Albumin [12]": {"biological_target": "T1, Albumin", "experiment": "Inhibition of D-fructose glycation in human serum albumin model by measuring ketoamine moieties incubated for 14 days by Nitroblue tetrazolium (NBT) reduction assay (reference value: 129.58 nmol/mL)", "settings": "336 h, time 14 day"}, "Mus musculus [13]": {"tested_on": "Mus musculus", "experiment": "Antidiabetic activity in Nicotinamide/Streptozotocin induced male Balb/c mouse model assessed as reduction in fasting blood glucose levels at 63.81 ug/kg, ip measured after 21 days by glucometer analysis (reference value: 180.5 +/- 9.02 mg/dl)", "assay_type": "functional", "settings": "dose 63.81 µg/kg, time 21 day"}, "Albumin [14]": {"biological_target": "T1, Albumin", "experiment": "Inhibition of D-glucose glycation in human serum albumin model by measuring ketoamine moieties incubated for 26 days by Nitroblue tetrazolium (NBT) reduction assay (reference value: 28.79 nmol/mL)", "settings": "624 h, time 26 day"}, "Mus musculus [15]": {"tested_on": "Mus musculus", "experiment": "Antidiabetic activity in Nicotinamide/Streptozotocin induced male Balb/c mouse model assessed as reduction in Triglycerides level in blood at 63.81 ug/kg, ip treated for 21 days (reference value: 61 +/- 3.05 mg/dL)", "assay_type": "functional", "settings": "dose 63.81 µg/kg, time 21 day"}, "Mus musculus [16]": {"tested_on": "Mus musculus", "experiment": "Antidiabetic activity in Nicotinamide/Streptozotocin induced male Balb/c mouse model assessed as reduction in fasting blood glucose levels at 63.81 ug/kg, ip measured after 14 days by glucometer analysis (reference value: 168.5 +/- 8.42 mg/dl)", "assay_type": "functional", "settings": "dose 63.81 µg/kg, time 14 day"}, "Mus musculus [17]": {"tested_on": "Mus musculus", "experiment": "Antidiabetic activity in Nicotinamide/Streptozotocin induced male Balb/c mouse model assessed as reduction in aspartate transaminase level in blood at 63.81 ug/kg, ip treated for 21 days (reference value: 171 +/- 8.55 U/L)", "assay_type": "functional", "settings": "dose 63.81 µg/kg, time 21 day"}, "Albumin [18]": {"biological_target": "T1, Albumin", "experiment": "Inhibition of D-glucose glycation in human serum albumin by measuring absorbance at 279 nm model incubated for 14 days by UV spectroscopic analysis (reference value: 2.302)", "settings": "336 h, time 14 day"}, "Albumin [19]": {"biological_target": "T1, Albumin", "experiment": "Inhibition of D-fructose glycation in human serum albumin model by measuring ketoamine moieties incubated for 30 days by Nitroblue tetrazolium (NBT) reduction assay (reference value: 128.71 nmol/mL)", "settings": "720 h, time 30 day"}, "Albumin [20]": {"biological_target": "T1, Albumin", "experiment": "Inhibition of D-glucose glycation in human serum albumin model by measuring ketoamine moieties incubated for 7 days by Nitroblue tetrazolium (NBT) reduction assay (reference value: 35.92 nmol/mL)", "settings": "168 h, time 7 day"}, "Mus musculus [21]": {"tested_on": "Mus musculus", "experiment": "Antidiabetic activity in Nicotinamide/Streptozotocin induced male Balb/c mouse model assessed as reduction in LDL-Cholesterol level in blood at 63.81 ug/kg, ip treated for 21 days (reference value: 46 +/- 2.30 mg/dL)", "assay_type": "functional", "settings": "dose 63.81 µg/kg, time 21 day"}, "Mus musculus [22]": {"tested_on": "Mus musculus", "experiment": "Antidiabetic activity in Nicotinamide/Streptozotocin induced male Balb/c mouse model assessed as reduction in alanine aminotransferase level in blood at 63.81 ug/kg, ip treated for 21 days (reference value: 111 +/- 5.05 U/L)", "assay_type": "functional", "settings": "dose 63.81 µg/kg, time 21 day"}, "Mus musculus [23]": {"tested_on": "Mus musculus", "experiment": "Antidiabetic activity in Nicotinamide/Streptozotocin induced male Balb/c mouse model assessed as change in body weight at 63.81 ug/kg, ip measured immediately (reference value: 25.08 +/- 1.25 g)", "assay_type": "functional", "settings": "dose 63.81 µg/kg"}, "Albumin [24]": {"biological_target": "T1, Albumin", "experiment": "Inhibition of D-glucose glycation in human serum albumin model by measuring ketoamine moieties incubated for 3 days by Nitroblue tetrazolium (NBT) reduction assay (reference value: 24.27 nmol/mL)", "settings": "72 h, time 3 day"}, "Albumin [25]": {"biological_target": "T1, Albumin", "experiment": "Inhibition of D-fructose glycation in human serum albumin model by measuring absorbance at 279 nm incubated for 26 days by UV spectroscopic analysis (reference value: 2.267)", "settings": "624 h, time 26 day"}, "Mus musculus [26]": {"tested_on": "Mus musculus", "experiment": "Antidiabetic activity in Nicotinamide/Streptozotocin induced male Balb/c mouse model assessed as LDL-Cholesterol/HDL-Cholesterol ratio in blood at 63.81 ug/kg, ip treated for 21 days (reference value: 1.53)", "assay_type": "functional", "settings": "dose 63.81 µg/kg, time 21 day"}, "Albumin [27]": {"biological_target": "T1, Albumin", "experiment": "Inhibition of D-fructose glycation in human serum albumin model by measuring ketoamine moieties incubated for 7 days by Nitroblue tetrazolium (NBT) reduction assay (reference value: 125.33 nmol/mL)", "settings": "168 h, time 7 day"}, "Alpha glucosidase": {"biological_target": "Alpha glucosidase (Homo sapiens, UniProt O43451+P10253+P14410+Q2M2H8)", "experiment": "Inhibition of Alpha-glucosidase (unknown origin) using p-nitrophenyl-alpha-D-glucopyranoside as substrate pre-incubated for 10 mins followed by substrate addition and measured after 5 mins by spectrophotometric analysis", "assay_type": "protein assay"}, "Mus musculus [28]": {"tested_on": "Mus musculus", "experiment": "Antidiabetic activity in Nicotinamide/Streptozotocin induced male Balb/c mouse model assessed as reduction in fasting blood glucose levels at 63.81 ug/kg, ip measured after 7 days by glucometer analysis (reference value: 160.5 +/- 8.02 mg/dl)", "assay_type": "functional", "settings": "dose 63.81 µg/kg, time 7 day"}, "Albumin [29]": {"biological_target": "T1, Albumin", "experiment": "Inhibition of D-glucose glycation in human serum albumin model by measuring absorbance at 279 nm incubated for 3 days by UV spectroscopic analysis (reference value: 0.562)", "settings": "72 h, time 3 day"}, "Albumin [30]": {"biological_target": "T1, Albumin", "experiment": "Inhibition of D-glucose glycation in human serum albumin model by measuring ketoamine moieties incubated for 33 days by Nitroblue tetrazolium (NBT) reduction assay (reference value: 66.64 nmol/mL)", "settings": "792 h, time 33 day"}}, "note": "Residues, ends and D or L forms follow the SMILES beside them."}
{"smiles": "N=C(N)NCCC[C@H](N)C(=O)N[C@@H](Cc1c[nH]c2ccccc12)C(=O)N[C@@H](Cc1c[nH]c2ccccc12)C(=O)O", "note": "(H-Arg-Trp-Trp-OH)", "values": [{"measurement": "OD", "setting": "Albumin [1]", "result": 1.591}, {"measurement": "inhibition (INH)", "setting": "Albumin [2]", "result": 16.45, "unit": "%"}, {"measurement": "Activity", "setting": "Albumin [3]", "result": 9.573, "unit": "nmol/mL"}, {"measurement": "Activity", "setting": "Mus musculus [4]", "result": 30.38, "unit": "g"}, {"measurement": "Ratio", "setting": "Mus musculus [5]", "result": 2.63}, {"measurement": "Activity", "setting": "Albumin [6]", "result": 142.17, "unit": "nmol/mL"}, {"measurement": "inhibition (INH)", "setting": "Albumin [7]", "result": 52.78, "unit": "%"}, {"measurement": "OD", "setting": "Albumin [8]", "result": 0.665}, {"measurement": "OD", "setting": "Albumin [9]", "result": 0.335}, {"measurement": "OD", "setting": "Albumin [10]", "result": 1.236}, {"measurement": "OD", "setting": "Albumin [11]", "result": 1.298}, {"measurement": "Activity", "setting": "Albumin [12]", "result": 91.22, "unit": "nmol/mL"}, {"measurement": "Activity", "setting": "Mus musculus [13]", "result": 115, "unit": "mg/dL"}, {"measurement": "Activity", "setting": "Albumin [14]", "result": 20.174, "unit": "nmol/mL"}, {"measurement": "Activity", "setting": "Mus musculus [15]", "result": 53, "unit": "mg/dL"}, {"measurement": "Activity", "setting": "Mus musculus [16]", "result": 134, "unit": "mg/dL"}, {"measurement": "Activity", "setting": "Mus musculus [17]", "result": 152, "unit": "U/L"}, {"measurement": "OD", "setting": "Albumin [18]", "result": 0.443}, {"measurement": "Activity", "setting": "Albumin [19]", "result": 108.46, "unit": "nmol/mL"}, {"measurement": "Activity", "setting": "Albumin [20]", "result": 12.579, "unit": "nmol/mL"}, {"measurement": "Activity", "setting": "Mus musculus [21]", "result": 31, "unit": "mg/dL"}, {"measurement": "Activity", "setting": "Mus musculus [22]", "result": 97, "unit": "U/L"}, {"measurement": "Activity", "setting": "Mus musculus [23]", "result": 29.56, "unit": "g"}, {"measurement": "Activity", "setting": "Albumin [24]", "result": 19.383, "unit": "nmol/mL"}, {"measurement": "OD", "setting": "Albumin [25]", "result": 1.502}, {"measurement": "Ratio", "setting": "Mus musculus [26]", "result": 0.75}, {"measurement": "Activity", "setting": "Albumin [27]", "result": 113.45, "unit": "nmol/mL"}, {"measurement": "IC50", "setting": "Alpha glucosidase", "result": 98, "unit": "µM"}, {"measurement": "Activity", "setting": "Mus musculus [28]", "result": 150, "unit": "mg/dL"}, {"measurement": "OD", "setting": "Albumin [29]", "result": 0.287}, {"measurement": "Activity", "setting": "Albumin [30]", "result": 18.433, "unit": "nmol/mL"}]}
